Experimental data reported in PubChem BioAssay AID179 (DTP/NCI, 2004).
Where “and” joins values, the source holds several entries; their conditions need not be identical. Identical values can stand only once. Calls of active or inactive are those of the source.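 How the source made its calls: active means compounds giving half or more protection of infected cells from virus-caused growth loss, again on retest; inactive means the rest.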 Where a SMILES comes first, the peptide text is derived from it. The star is where a group is joined. Boc = CC(C)(C)OC(=O)*

System: CEM cells HIV-1 protection, formazan growth assay
Experiment: NCI AIDS Antiviral Assay
Settings: for IC50: measured here: growth of uninfected CEM cells
Outline: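 Human CEM cells, uninfected and HIV-1-infected, exposed to five drug concentrations; growth measured by soluble formazan assay and scored as percent protection from infection, with protecting compounds retested.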

SMILES | EC50 [µM] | IC50 | outcome
Cn1c(COC(=O)NC2CCCCC2)c(COC(=O)NC2CCCCC2)c2ccc3cc(Cl)c(Cl)cc3c21 | > 174 | 6.46 µM | 
CCOC(=O)/C(=C\c1ccc(N(C)C)cc1)[Se]c1ccccc1 | > 69.2 | > 69.2 µM | 
CCO/C(Cc1ccc(Cl)cc1)=N/NC(N)=S | > 200 | 95.5 µM | 
Cc1ccc(NC(=O)/C(C#N)=C/c2ccccc2)c(C)c1 | > 24.5 | > 24.5 µM | 
CC(C)(C)OC(=O)N[C@@H](Cc1ccccc1)CN1CCCC1C(=O)OCc1ccccc1 (stereo not given in full) | > 30.9 | > 30.9 µM | 
O=C(Nn1c(-c2ccccc2)nc2ccccc2c1=O)c1cccc([N+](=O)[O-])c1 | > 200 | 166 µM | 
CN(C)c1ccc(/C=c2\sc3nc4ccccc4n3c2=O)cc1 | > 0.851 | > 0.851 µM | 
FC(F)(F)c1ccccc1C=NC12CC3CC(CC(C3)C1)C2 | > 30.9 | > 30.9 µM | 
S=c1n(-c2ccc(Cl)cc2)c2/c(=N\Nc3cc(Cl)ccc3Cl)c(n1-c1ccccn1)=NCCN=2 | > 200 | > 200 µM | 
C=CCO/N=C(\OC(=O)c1ccc([N+](=O)[O-])cc1)c1ccccc1 | > 151 | > 151 µM | 
O=C(O)/C=C/CCC1SCC2NC(=O)NC21 (stereo not given) | > 107 | > 107 µM | 
Cc1ccc(C)c(NC(=O)CC2SC(=Nc3ccccc3Cl)NC2=O)c1 (stereo not given) | > 67.6 | > 67.6 µM | 
C/C(=N\NC(N)=O)C(CN1CCCCC1)C(c1ccccc1)c1c(O)c2ccccc2oc1=O (stereo not given) | > 87.1 | 46.8 µM | 
CCOc1cccc2ccc[n+](CC)c12 | > 251 | 25.1 µM | 
O=S(=O)(Nc1nc2ccccc2nc1Nc1cccc2ccccc12)c1ccccc1 | > 200 | 15.8 µM | 
CN(C)C(=S)/N=c1\ssc(=S)n1C1CCCCC1 |  |  | inactive
CC(=O)OCc1cc(=O)n(C)c2c3c4c(cc12)c(C)cc(=O)n4CO3 | > 7.94 | 1.26 µM | 
CN(C)c1ccc(C2ON=C(c3ccccc3)N2C23CC4CC(CC(C4)C2)C3)cc1 (stereo not given) | > 200 | 24 µM | 
O=C1C(Cl)=C(Cl)C(=O)N1c1ccccc1Cl |  |  | inactive
CC(=N\N=C\c1ccccn1)/C(C)=N/N=C(C)/C(C)=N/N=C/c1ccccn1 |  |  | inactive
Nc1nc(NC2C3CC4CC(C3)CC2C4)nc(-c2n[nH]c(=S)o2)n1 (stereo not given) | > 55 | 28.2 µM | 
CC(NC(=O)C(N)CC(=O)O)NC(=O)C1CCC1 (stereo not given) | > 200 | > 200 µM | 

SMILES | EC50 [µM] | IC50 | outcome
Cc1c(/C=N/N=C/c2[nH]c(C(=O)OC(C)(C)C)c(C)c2C)[nH]c(C(=O)OC(C)(C)C)c1C |  |  | inactive
N#Cc1ccc(C2NN=CC23C(=O)c2ccccc2OC3c2ccccc2)cc1 (stereo not given) | > 200 | 64.6 µM | 
COc1ccc2c3ccc4c(c3n(C)c2c1)C(=O)c1ccccc1C4=O | > 1.51 | > 1.51 µM | 
CC1(C)SCc2nc3ncccc3n21 | > 1230 | 617 µM | 
N#Cc1c(-c2ccccc2)c(C#N)c(=O)n(C2OC(CO)C(O)C(O)C2O)c1S (stereo not given) | > 200 | > 200 µM and 141 µM | 
Cc1cccc(N(CC(=O)O)S(=O)(=O)c2ccccc2)c1 |  |  | inactive
CCCCNCCC(SSSC(CCNCCCC)c1ccc(Cl)cc1)c1ccc(Cl)cc1 (stereo not given) | > 200 | 3.47 µM | 
COC(=O)CC1(C)CCC2(OC(CC(C)=O)C3C(C)(C)CCC[C@@]32C)O1 (stereo not given in full) | > 200 | 141 µM | 
O=C1CCCC1C(O)(C(F)(F)Cl)C(F)(F)Cl (stereo not given) | > 200 | > 200 µM | 
CC(NC(=O)OC(C)(C)C)C(=O)NC(Cc1ccccc1)C(=O)NCC(=O)O (stereo not drawn) (Boc-Ala-Phe-Gly-OH; configuration not given here) | > 200 | > 200 µM | 
c1ccc(SC2CCCO2)cc1 (stereo not given) |  |  | inactive
COc1ccc(CN2COc3c(ccc4cccnc34)C2)cc1 | > 200 | 0.759 µM | 
CSC1=N/C(=C\c2ccc(C)cc2)C(=O)N1CN1CCOCC1 | > 200 | 34.7 µM | 
O=C(N/N=C\c1ccc([N+](=O)[O-])o1)c1ccncc1 | > 200 | 22.9 µM | 
COc1ccc(-c2cc(-c3ccccc3)[nH]c(=O)c2N(C)C)cc1 | > 58.9 | > 58.9 µM | 
NCCCN(CCCCN(CCCN)C(=O)OCc1ccccc1)C(=O)OCc1ccccc1 |  |  | inactive
Cc1ccc(SC[C@@]2(C(F)F)NC(=O)NC2=O)cc1 | > 200 | > 200 µM | 
CCC1([N+](=O)[O-])COP(N)(=O)OC1 (stereo not given) | > 427 | 31.6 µM | 
COC(=O)C(Cc1nc2ccccc2[nH]c1=O)C(NO)C(=O)Nc1c(Cl)cc([N+](=O)[O-])cc1Cl (stereo not given) | > 51.3 | > 51.3 µM | 
O=C1NC(N2CCOCC2)=N/C1=C\c1ccc(O)cc1 | > 200 | 105 µM | 
CCOC(=O)/C(=C\c1cccc(Cl)c1)P(=O)(OCC)OCC | > 380 | 81.3 µM | 
CC(C)(C)c1cc(C2c3cc4c(cc3OC(O)(CO)C2C(=O)O)OCO4)cc(C(C)(C)C)c1O (stereo not given) (tested in a mixture with another compound) |  |  | inactive

SMILES | EC50 [µM] | IC50 | outcome
COc1ccc(C(=O)C(c2ccc(OC)cc2)C2(O)C(=O)Nc3c2ccc(Cl)c3C)cc1 (stereo not given) | > 11.5 | > 11.5 µM | 
C/C(CC(O)(C(F)(F)F)C(F)(F)F)=N\NC(N)=O | > 200 | > 200 µM | 
CN/N=C(\C(=O)Nc1ccc(C(F)(F)F)cc1[N+](=O)[O-])C(c1cnc2ccc([N+](=O)[O-])cc2n1)[N+](=O)[O-] (stereo not given) | > 251 | 138 µM | 
Nc1nc(=S)[nH]c2n[nH]nc12 | > 200 | > 200 µM | 
N#C/C(=C\c1ccc(Br)cc1)c1nc(-c2cc3ccccc3oc2=O)cs1 | 83.2 | > 100 µM | 
O=C1OC(c2ccccc2)N/C1=C\c1ccc2c(c1)OCO2 (stereo not given) | > 200 | 69.2 µM | 
CC1=NOC(=O)C1N=Nc1ccc(Br)c(C)c1 (stereo not given) |  |  | inactive
CCO/C=C/C=C(C(=O)OCC)C(=O)OCC | > 148 | > 148 µM | 
CC1(C)C2CCC3CC(CCC#N)CCC3C21C#N (stereo not given) | > 200 | 95.5 µM | 
CCCN(CCC)C(=O)c1c(Cl)c2cccnc2n2c(C)cnc12 | > 200 | 70.8 µM | 
O=C(O)c1ccccc1C(=O)c1ccccc1 | > 200 | > 200 µM | 
COC(OC)C(O)C1OC=CC1n1cnc2c(N)ncnc21 (stereo not given) | > 200 | > 200 µM | 
COP1(=O)Oc2ccccc2C(=O)C(C(F)(F)F)(C(F)(F)F)O1 (stereo not given) | > 692 | 295 µM | 
O=C(OCCNC(=O)N1CCOCC1)OCCNC(=O)N1CCOCC1 | > 200 | > 200 µM | 
CCCCCC1CC=CC(NC(=O)OCc2ccccc2)C1/C=C/CCCC1OCCO1 (stereo not given) |  |  | inactive
O=S(=O)(CCn1c(Sc2ccccc2)c(Sc2ccccc2)c2ccccc21)c1ccccc1 | > 200 | > 200 µM | 
O=C1NC(=O)C(=Cc2cccnc2)C(=O)N1 | > 200 | > 200 µM | 
COc1ccc2c(c1C)C(=O)C(O)(CC=C(C)C)O2 (stereo not given) | > 200 | 42.7 µM | 
COc1cc(Nc2ccc3c(c2)CCC3)nc(OC)n1 | > 200 | 31.6 µM | 
CSCCC(NC(=O)OCc1ccccc1)NC(=O)OCc1ccccc1 | > 200 | > 200 µM | 
CSc1nc(=S)[nH]c2c1c(C)nn2-c1ccccc1 | > 200 | 28.8 µM | 
